According to the CheMixHub viscosity set:

Assay: xn = mol fraction of the nth substance listed

C1C[C@@H]2[C@H]3CC[C@H](C3)[C@@H]2C1 + CCCCCO
viscosity [mPa·s], 101 kPa
Conditions	x2 = 0.1465	x2 = 0.2782	x2 = 0.3987	x2 = 0.5049	x2 = 0.6067	x2 = 0.6985	x2 = 0.7827	x2 = 0.8623	x2 = 0.9326
293.15 K	2.919	2.901	2.955	3.058	3.19	3.372	3.549	3.718	3.916
298.15 K	2.621	2.595	2.622	2.7	2.807	2.953	3.095	3.27	3.411
303.15 K	2.379	2.346	2.354	2.41	2.487	2.607	2.726	2.852	2.971
313.15 K	1.972	1.92	1.914	1.922	1.957	2.033	2.107	2.18	2.253

CC(=O)C=C(C)C + CCCCCOC(C)=O
298.15 K, 101 kPa
Conditions	viscosity [mPa·s]
x1 = 0.11	0.7593
x1 = 0.167	0.7461

CCC(=O)O + CCCCN(CCCC)CCCC
viscosity [mPa·s], 101.33 kPa
Conditions	x1 = 0.1	x1 = 0.2	x1 = 0.3	x1 = 0.4	x1 = 0.5	x1 = 0.6	x1 = 0.7	x1 = 0.8	x1 = 0.9
293.15 K	1.867	–	–	–	6.422	12.71	26.1	23.66	6.57
298.15 K	1.389	1.676	2.303	3.571	5.447	10.24	20.63	19.13	5.91
303.15 K	1.228	1.495	1.923	3.107	4.591	8.37	16.9	15.79	4.93
308.15 K	1.112	1.342	1.728	2.693	3.887	7.04	13.12	13.19	4.33
313.15 K	1.015	1.212	1.523	2.359	3.372	5.67	10.81	10.94	3.79
318.15 K	0.938	1.096	1.361	2.071	2.954	5.03	8.92	9.32	3.39
323.15 K	0.878	0.994	1.245	1.839	2.557	4.35	7.55	8.06	3.04

C1C[C@@H]2[C@H]3CC[C@H](C3)[C@@H]2C1 + CCCCO
viscosity [mPa·s], 101 kPa
Conditions	x2 = 0.1697	x2 = 0.3148	x2 = 0.4378	x2 = 0.5481	x2 = 0.6472	x2 = 0.7336	x2 = 0.8102	x2 = 0.8799	x2 = 0.9439
293.15 K	2.796	2.675	2.646	2.66	2.694	2.743	2.807	2.855	2.906
298.15 K	2.513	2.397	2.354	2.355	2.372	2.416	2.465	2.505	2.543
303.15 K	2.282	2.177	2.128	2.118	2.135	2.165	2.211	2.242	2.272
313.15 K	1.882	1.773	1.708	1.685	1.682	1.7	1.719	1.743	1.766

CCC(=O)O + CCCCO
308.15 K, 101 kPa
Conditions	viscosity [mPa·s]
x1 = 0.0503	1.834
x1 = 0.1016	1.791
x1 = 0.1477	1.736
x1 = 0.1995	1.695
x1 = 0.301	1.556
x1 = 0.4	1.482
x1 = 0.5007	1.402
x1 = 0.5993	1.312
x1 = 0.7006	1.222
x1 = 0.7995	1.12
x1 = 0.9007	1.02

CCCCCCCCCCCCC + CCCCO
viscosity [mPa·s], 100 kPa
Conditions	x1 = 0.1001	x1 = 0.2009	x1 = 0.2975	x1 = 0.3918	x1 = 0.5054	x1 = 0.6051	x1 = 0.7	x1 = 0.7984	x1 = 0.8908
293.15 K	2.584	2.319	2.148	2.004	1.901	1.841	1.807	1.788	1.829
298.15 K	2.271	2.051	1.905	1.789	1.703	1.644	1.63	1.617	1.668
303.15 K	2.006	1.821	1.701	1.606	1.535	1.489	1.48	1.469	1.522
308.15 K	1.782	1.625	1.524	1.448	1.391	1.353	1.351	1.342	1.386
313.15 K	1.591	1.459	1.374	1.312	1.268	1.246	1.239	1.231	1.265
318.15 K	1.426	1.314	1.245	1.194	1.161	1.152	1.139	1.133	1.158
323.15 K	1.283	1.19	1.132	1.092	1.066	1.059	1.052	1.048	1.068

ClCCCCCl + CCCCO
viscosity [mPa·s], 101 kPa
Conditions	x1 = 0.0988	x1 = 0.1965	x1 = 0.2919	x1 = 0.3955	x1 = 0.4961	x1 = 0.5978	x1 = 0.6964	x1 = 0.7945	x1 = 0.8982
298.15 K	2.129	1.827	1.61	1.455	1.338	1.265	1.221	1.204	1.213
313.15 K	1.485	1.3	1.17	1.077	1.012	0.9721	0.9502	0.9443	0.9674

Nc1cccc(Cl)c1 + CCCCO
viscosity [mPa·s], 101 kPa
Conditions	x1 = 0.0884	x1 = 0.1792	x1 = 0.2723	x1 = 0.368	x1 = 0.4662	x1 = 0.5671	x1 = 0.6708	x1 = 0.7774	x1 = 0.8871
303.15 K	2.47	2.654	2.84	3.03	3.219	3.412	3.607	3.806	4.02
308.15 K	2.198	2.371	2.546	2.72	2.895	3.073	3.253	3.441	3.635
313.15 K	1.966	2.128	2.284	2.441	2.598	2.759	2.923	3.091	3.261
318.15 K	1.761	1.911	2.052	2.19	2.328	2.468	2.61	2.756	2.897

O=C(O)c1ccccc1O + CCCCO
viscosity [mPa·s]
Conditions	308.15 K	313.15 K	318.15 K	323.15 K
101 kPa, x1 = 0.14	2.453	–	–	–
101 kPa, x1 = 0.173	2.656	–	–	–
101 kPa, x1 = 0.193	2.761	–	–	–
101.33 kPa, x1 = 0.14	2.453	2.187	1.951	1.736
101.33 kPa, x1 = 0.193	2.761	2.375	2.154	1.928

Nc1cccc(Cl)c1 + CCCCOCCO
303.15 K, 101 kPa
Conditions	viscosity [mPa·s]
x1 = 0.1347	2.958
x1 = 0.2158	3.022
x1 = 0.3353	3.099
x1 = 0.4394	3.15
x1 = 0.5555	3.192
x1 = 0.6554	3.214
x1 = 0.7157	3.226
x1 = 0.8263	3.239
x1 = 0.912	3.242

CC(=O)CCC(=O)O + CCCC[N+](CCCC)(CCCC)CCCC.[Br-]
viscosity [mPa·s], 101 kPa
Conditions	293.15 K	298.15 K	303.15 K	308.15 K	313.15 K	318.15 K	323.15 K
x1 = 0.75	376.5	–	175.1	–	93.88	–	53.38
x2 = 0.25	–	261.9	169.6	118.6	89.13	64.47	46.13

CCCCCCCCCCCCCC[P+](CCCCCC)(CCCCCC)CCCCCC.c1c[n-]nn1 + CCCCn1cc[n+](C)c1.O=S(=O)([N-]S(=O)(=O)C(F)(F)F)C(F)(F)F
viscosity [mPa·s], 100 kPa
Conditions	293.15 K	298.15 K	303.15 K	308.15 K	313.15 K	318.15 K	323.15 K
x1 = 0.1	98	77	61	49	–	–	–
x1 = 0.2	164	123	96	76	62	50	–
x1 = 0.278	242	178	135	107	84	68	56
x1 = 0.612	602	428	311	231	174	135	107
x1 = 0.699	663	468	339	252	190	147	115
x1 = 0.8	723	507	368	273	205	158	125
x1 = 0.9	685	486	353	263	199	154	123

CCC(=O)O + CCCO
308.15 K, 101 kPa
Conditions	viscosity [mPa·s]
x1 = 0.0416	1.42
x1 = 0.084	1.443
x1 = 0.1244	1.439
x1 = 0.1683	1.368
x1 = 0.2579	1.351
x1 = 0.3504	1.328
x1 = 0.4481	1.289
x1 = 0.5489	1.242
x1 = 0.6538	1.178
x1 = 0.7644	1.096
x1 = 0.8223	1.055
x1 = 0.8798	1.006
x1 = 0.9384	0.9669

O=C(O)c1ccccc1O + CCCO
viscosity [mPa·s]
Conditions	308.15 K	313.15 K	318.15 K	323.15 K
101 kPa, x1 = 0.133	2.13	–	–	1.51
101 kPa, x1 = 0.16	2.236	–	–	1.602
101 kPa, x1 = 0.179	2.427	–	–	1.69
101 kPa, x1 = 0.191	2.4	–	–	1.722
101.33 kPa, x1 = 0.16	2.236	2.012	1.791	1.602
101.33 kPa, x1 = 0.19	–	2.17	1.929	1.722

CCC(=O)O + CCO
308.15 K, 101 kPa
Conditions	viscosity [mPa·s]
x1 = 0.0674	1.035
x1 = 0.1373	1.062
x1 = 0.2156	1.095
x1 = 0.2983	1.125
x1 = 0.3898	1.151
x1 = 0.4885	1.167
x1 = 0.5987	1.16
x1 = 0.7173	1.119
x1 = 0.7834	1.081
x1 = 0.8532	1.043
x1 = 0.9225	0.9581

Nc1cccc(Cl)c1 + CCOCCO
303.15 K, 101 kPa
Conditions	viscosity [mPa·s]
x1 = 0.0966	2.028
x1 = 0.1696	2.159
x1 = 0.2725	2.333
x1 = 0.3613	2.473
x1 = 0.4791	2.643
x1 = 0.5648	2.755
x1 = 0.68	2.897
x1 = 0.7804	3.008
x1 = 0.8884	3.121

CC(=O)CCC(=O)O + CC[N+](CC)(CC)CC.[Br-]
101 kPa, x1 = 0.75
Conditions	viscosity [mPa·s]
293.15 K	149
303.15 K	76.98
313.15 K	42.42
323.15 K	28.81

CCC(=O)O + CCc1ccccc1
308.15 K, 101.33 kPa
Conditions	viscosity [mPa·s]
x1 = 0.1393	0.5916
x1 = 0.2634	0.6031
x1 = 0.3813	0.6196
x1 = 0.4881	0.6386
x1 = 0.5891	0.6621
x1 = 0.6835	0.6881
x1 = 0.7694	0.721
x1 = 0.8518	0.7666
x1 = 0.9275	0.8175

CCC(=O)O + CO
308.15 K, 101 kPa
Conditions	viscosity [mPa·s]
x1 = 0.0467	0.5336
x1 = 0.0975	0.5843
x1 = 0.157	0.6175
x1 = 0.2234	0.6789
x1 = 0.3021	0.7413
x1 = 0.3923	0.8094
x1 = 0.5024	0.9055
x1 = 0.6344	0.9763
x1 = 0.7111	1.021
x1 = 0.7964	0.9955
x1 = 0.8919	0.9369

O=C(O)c1ccccc1O + CO
viscosity [mPa·s]
Conditions	308.15 K	313.15 K	318.15 K	323.15 K
101 kPa, x1 = 0.13	1.049	–	–	0.8273
101 kPa, x1 = 0.14	1.086	–	–	0.8572
101 kPa, x1 = 0.15	1.118	–	–	0.8818
101 kPa, x1 = 0.17	1.262	–	–	0.9692
101.33 kPa, x1 = 0.13	1.049	0.9732	0.8932	0.8273
101.33 kPa, x1 = 0.15	1.118	1.036	0.9552	0.8818

CC12CCC(CC1)C(C)(C)O2 + COC(C)(C)C
298.15 K, 101.33 kPa
Conditions	viscosity [mPa·s]
x2 = 0.039	2.365
x2 = 0.1663	1.833
x2 = 0.2659	1.491
x2 = 0.379	1.188
x2 = 0.4562	1.02
x2 = 0.5768	0.7958
x2 = 0.6621	0.6632
x2 = 0.7385	0.5702
x2 = 0.8408	0.4604
x2 = 0.902	0.4049
x2 = 0.9701	0.3547

Nc1cccc(Cl)c1 + COCCO
303.15 K, 101 kPa
Conditions	viscosity [mPa·s]
x1 = 0.0687	2.116
x1 = 0.1403	2.27
x1 = 0.238	2.434
x1 = 0.3592	2.586
x1 = 0.4287	2.72
x1 = 0.5233	2.844
x1 = 0.6416	2.949
x1 = 0.7401	3.05
x1 = 0.8794	3.143
